In PubChem BioAssay (NCI):
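Growth conditions: 96-well plates. Treatment: test compound, 48 hours, 5 concentrations. Analysis: linear interpolation between bracketing concentrations; unreached endpoints set to highest concentration. Definition used: TGI = concentration required for complete inhibition of growth.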

Assays:
Assay in all cases: NCI tumour cell line growth inhibition, 48 h
EKVX NSCLC = test system: EKVX NSCLC
HT29 colon = test system: HT29 colon
K-562 leukemia = test system: K-562 leukemia
UACC-257 melanoma = test system: UACC-257 melanoma
ACHN renal = test system: ACHN renal
RXF 393 renal = test system: RXF 393 renal
NCI/ADR-RES ovarian = test system: NCI/ADR-RES ovarian
HL-60(TB) leukemia = test system: HL-60(TB) leukemia
NCI-H522 lung = test system: NCI-H522 lung
NCI-H460 lung = test system: NCI-H460 lung
SN12C renal = test system: SN12C renal
NCI-H23 lung = test system: NCI-H23 lung
OVCAR-3 ovarian = test system: OVCAR-3 ovarian
SNB-19 CNS = test system: SNB-19 CNS
SR leukemia = test system: SR leukemia
MALME-3M melanoma = test system: MALME-3M melanoma
KM12 colon = test system: KM12 colon
MDA-N = test system: MDA-N
SNB-75 CNS = test system: SNB-75 CNS
PC-3 prostate = test system: PC-3 prostate
BT-549 breast = test system: BT-549 breast
IGROV1 ovarian = test system: IGROV1 ovarian
SF-295 CNS = test system: SF-295 CNS
HOP-62 NSCLC = test system: HOP-62 NSCLC
T-47D breast = test system: T-47D breast
SK-MEL-28 melanoma = test system: SK-MEL-28 melanoma
MDA-MB-231 breast = test system: MDA-MB-231 breast
DU-145 prostate = test system: DU-145 prostate
SF-268 CNS = test system: SF-268 CNS
OVCAR-5 ovarian = test system: OVCAR-5 ovarian
SK-MEL-5 melanoma = test system: SK-MEL-5 melanoma
HS 578T breast = test system: HS 578T breast
SF-539 CNS = test system: SF-539 CNS
MOLT-4 leukemia = test system: MOLT-4 leukemia
CAKI-1 renal = test system: CAKI-1 renal
RPMI-8226 leukemia = test system: RPMI-8226 leukemia
COLO 205 colon = test system: COLO 205 colon
HCT-15 colon = test system: HCT-15 colon
UO-31 renal = test system: UO-31 renal
OVCAR-4 ovarian = test system: OVCAR-4 ovarian
786-0 renal = test system: 786-0 renal
A549 NSCLC = test system: A549 NSCLC
SK-OV-3 ovarian = test system: SK-OV-3 ovarian
HCC-2998 colon = test system: HCC-2998 colon
TK-10 renal = test system: TK-10 renal
UACC-62 melanoma = test system: UACC-62 melanoma
OVCAR-8 ovarian = test system: OVCAR-8 ovarian
LOX IMVI melanoma = test system: LOX IMVI melanoma
HCT-116 colon = test system: HCT-116 colon
CCRF-CEM leukemia = test system: CCRF-CEM leukemia
NCI-H226 lung = test system: NCI-H226 lung
M14 melanoma = test system: M14 melanoma
A498 renal = test system: A498 renal
SW-620 colon = test system: SW-620 colon
U251 CNS = test system: U251 CNS
MDA-MB-435 = test system: MDA-MB-435
HOP-92 NSCLC = test system: HOP-92 NSCLC
MCF7 breast = test system: MCF7 breast
SK-MEL-2 melanoma = test system: SK-MEL-2 melanoma

COc1cc2c(cc1OC)C(=O)C1(C2)[C@H](c2ccccc2)C2C(=O)c3cc(OC)c(OC)cc3C2[C@H]1c1ccccc1 (stereo partly drawn)
TGI (EKVX NSCLC): > 100 µM | TGI (HT29 colon): > 100 µM | TGI (K-562 leukemia): > 100 µM | TGI (UACC-257 melanoma): > 100 µM | TGI (ACHN renal): > 100 µM | TGI (RXF 393 renal): > 100 µM | TGI (NCI/ADR-RES ovarian): > 100 µM | TGI (HL-60(TB) leukemia): > 100 µM | TGI (NCI-H522 lung): > 100 µM | TGI (NCI-H460 lung): > 100 µM | TGI (SN12C renal): > 100 µM | TGI (NCI-H23 lung): > 100 µM | TGI (OVCAR-3 ovarian): > 100 µM | TGI (SNB-19 CNS): > 100 µM | TGI (SR leukemia): > 100 µM | TGI (MALME-3M melanoma): > 100 µM | TGI (KM12 colon): > 100 µM | TGI (MDA-N): > 100 µM | TGI (SNB-75 CNS): > 100 µM | TGI (PC-3 prostate): > 100 µM | TGI (BT-549 breast): > 100 µM | TGI (IGROV1 ovarian): > 100 µM | TGI (SF-295 CNS): > 100 µM | TGI (HOP-62 NSCLC): > 100 µM | TGI (T-47D breast): > 100 µM | TGI (SK-MEL-28 melanoma): > 100 µM | TGI (MDA-MB-231 breast): > 100 µM | TGI (DU-145 prostate): > 100 µM | TGI (SF-268 CNS): > 100 µM | TGI (OVCAR-5 ovarian): > 100 µM | TGI (SK-MEL-5 melanoma): > 100 µM | TGI (HS 578T breast): > 100 µM | TGI (SF-539 CNS): > 100 µM | TGI (MOLT-4 leukemia): > 100 µM | TGI (CAKI-1 renal): 0.648 µM | TGI (RPMI-8226 leukemia): > 100 µM | TGI (COLO 205 colon): > 100 µM | TGI (HCT-15 colon): > 100 µM | TGI (UO-31 renal): > 100 µM | TGI (OVCAR-4 ovarian): > 100 µM | TGI (786-0 renal): > 100 µM | TGI (A549 NSCLC): > 100 µM | TGI (SK-OV-3 ovarian): > 100 µM | TGI (HCC-2998 colon): > 100 µM | TGI (TK-10 renal): > 100 µM | TGI (UACC-62 melanoma): > 100 µM | TGI (OVCAR-8 ovarian): > 100 µM | TGI (LOX IMVI melanoma): > 100 µM | TGI (HCT-116 colon): > 100 µM | TGI (CCRF-CEM leukemia): > 100 µM | TGI (NCI-H226 lung): > 100 µM | TGI (M14 melanoma): > 100 µM | TGI (A498 renal): > 100 µM | TGI (SW-620 colon): > 100 µM | TGI (U251 CNS): > 100 µM | TGI (MDA-MB-435): > 100 µM

CCCCCCCCCCCCCCCCCCOCC(CCP(=O)(CP(=O)(O)O)Oc1ccccc1)OCCCCCCCCCCCCCCCCCC (stereo not drawn)
TGI (EKVX NSCLC): > 100 µM | TGI (HT29 colon): > 100 µM | TGI (K-562 leukemia): > 100 µM | TGI (UACC-257 melanoma): > 100 µM | TGI (ACHN renal): > 100 µM | TGI (RXF 393 renal): > 100 µM | TGI (NCI/ADR-RES ovarian): > 100 µM | TGI (HL-60(TB) leukemia): > 100 µM | TGI (NCI-H522 lung): > 100 µM | TGI (NCI-H460 lung): > 100 µM | TGI (SN12C renal): > 100 µM | TGI (HOP-92 NSCLC): > 100 µM | TGI (NCI-H23 lung): > 100 µM | TGI (OVCAR-3 ovarian): > 100 µM | TGI (SNB-19 CNS): > 100 µM | TGI (SR leukemia): > 100 µM | TGI (MALME-3M melanoma): > 100 µM | TGI (KM12 colon): > 100 µM | TGI (MDA-N): > 100 µM | TGI (SNB-75 CNS): > 100 µM | TGI (PC-3 prostate): > 100 µM | TGI (IGROV1 ovarian): > 100 µM | TGI (SF-295 CNS): > 100 µM | TGI (HOP-62 NSCLC): > 100 µM | TGI (T-47D breast): > 100 µM | TGI (SK-MEL-28 melanoma): > 100 µM | TGI (MDA-MB-231 breast): > 100 µM | TGI (DU-145 prostate): > 100 µM | TGI (SF-268 CNS): > 100 µM | TGI (OVCAR-5 ovarian): > 100 µM | TGI (SK-MEL-5 melanoma): > 100 µM | TGI (HS 578T breast): > 100 µM | TGI (SF-539 CNS): > 100 µM | TGI (MOLT-4 leukemia): > 100 µM | TGI (CAKI-1 renal): > 100 µM | TGI (RPMI-8226 leukemia): > 100 µM | TGI (COLO 205 colon): > 100 µM | TGI (HCT-15 colon): > 100 µM | TGI (OVCAR-4 ovarian): > 100 µM | TGI (786-0 renal): > 100 µM | TGI (A549 NSCLC): > 100 µM | TGI (MCF7 breast): > 100 µM | TGI (SK-OV-3 ovarian): > 100 µM | TGI (HCC-2998 colon): > 100 µM | TGI (TK-10 renal): > 100 µM | TGI (UACC-62 melanoma): > 100 µM | TGI (OVCAR-8 ovarian): > 100 µM | TGI (LOX IMVI melanoma): > 100 µM | TGI (HCT-116 colon): > 100 µM | TGI (CCRF-CEM leukemia): > 100 µM | TGI (NCI-H226 lung): > 100 µM | TGI (M14 melanoma): > 100 µM | TGI (A498 renal): > 100 µM | TGI (SW-620 colon): > 100 µM | TGI (U251 CNS): > 100 µM | TGI (MDA-MB-435): > 100 µM

COC(=O)[C@H]1COC(=O)N1
TGI (EKVX NSCLC): > 100 µM | TGI (HT29 colon): > 100 µM | TGI (K-562 leukemia): > 100 µM | TGI (UACC-257 melanoma): > 100 µM | TGI (ACHN renal): > 100 µM | TGI (RXF 393 renal): > 100 µM | TGI (NCI/ADR-RES ovarian): > 100 µM | TGI (HL-60(TB) leukemia): > 100 µM | TGI (SK-MEL-2 melanoma): > 100 µM | TGI (NCI-H522 lung): > 100 µM | TGI (NCI-H460 lung): > 100 µM | TGI (SN12C renal): > 100 µM | TGI (HOP-92 NSCLC): > 100 µM | TGI (NCI-H23 lung): > 100 µM | TGI (OVCAR-3 ovarian): > 100 µM | TGI (SNB-19 CNS): > 100 µM | TGI (MALME-3M melanoma): > 100 µM | TGI (KM12 colon): > 100 µM | TGI (MDA-N): > 100 µM | TGI (SNB-75 CNS): > 100 µM | TGI (BT-549 breast): > 100 µM | TGI (IGROV1 ovarian): > 100 µM | TGI (SF-295 CNS): > 100 µM | TGI (HOP-62 NSCLC): > 100 µM | TGI (T-47D breast): > 100 µM | TGI (SK-MEL-28 melanoma): > 100 µM | TGI (MDA-MB-231 breast): > 100 µM | TGI (DU-145 prostate): > 100 µM | TGI (SF-268 CNS): > 100 µM | TGI (OVCAR-5 ovarian): > 100 µM | TGI (SK-MEL-5 melanoma): > 100 µM | TGI (HS 578T breast): > 100 µM | TGI (SF-539 CNS): > 100 µM | TGI (MOLT-4 leukemia): > 100 µM | TGI (CAKI-1 renal): > 100 µM | TGI (COLO 205 colon): > 100 µM | TGI (HCT-15 colon): > 100 µM | TGI (UO-31 renal): > 100 µM | TGI (OVCAR-4 ovarian): > 100 µM | TGI (786-0 renal): > 100 µM | TGI (A549 NSCLC): > 100 µM | TGI (MCF7 breast): > 100 µM | TGI (SK-OV-3 ovarian): > 100 µM | TGI (HCC-2998 colon): > 100 µM | TGI (TK-10 renal): > 100 µM | TGI (UACC-62 melanoma): > 100 µM | TGI (OVCAR-8 ovarian): > 100 µM | TGI (LOX IMVI melanoma): > 100 µM | TGI (HCT-116 colon): > 100 µM | TGI (CCRF-CEM leukemia): > 100 µM | TGI (NCI-H226 lung): > 100 µM | TGI (M14 melanoma): > 100 µM | TGI (A498 renal): > 100 µM | TGI (SW-620 colon): > 100 µM | TGI (U251 CNS): > 100 µM | TGI (MDA-MB-435): > 100 µM
